Measurements from PubChem BioAssay AID1963958 (Molecular Pharmacology Branch, DTP, NCI, 2024).
pIC50: −log10 of the molar value.

Test system: MDA-MB-231 multicell spheroids, viability
Assay: Anticancer human tumor MDA-MB-231 cell line growth inhibition [PI3K];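 further: spheroids exposed to agents for seven days before reading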;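 on viability, T/C: percent of vehicle control luminescence with DMSO treated spheroids as 100%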
Conditions: for pIC50: curve of first compound; for viability, T/C: stronger effect = lower value; active means viability on the fitted dose curve at most 10% of control; inactive means the rest
Outline: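 Tumor cells grown as multi-cell spheroids with HUVEC endothelial cells and MSC fibroblast-like stroma were treated with targeted agents combined with inavolisib, alpelisib, duvelisib or copanlisib. Doses fell in half-log steps from near clinical Cmax, else from 10 microM. Viability was measured.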

[1] = second compound 0.00316 µM, first compound 0.0316 µM
[2] = second compound 0.00316 µM, first compound 0.1 µM
[3] = second compound 0.00316 µM, first compound 0.316 µM
[4] = second compound 0.00316 µM, first compound 1 µM
[5] = second compound 0.00316 µM, first compound 3.16 µM
[6] = second compound 0.00316 µM, first compound 10 µM
[7] = second compound 0.01 µM, first compound 0.0316 µM
[8] = second compound 0.01 µM, first compound 0.1 µM
[9] = second compound 0.01 µM, first compound 0.316 µM
[10] = second compound 0.01 µM, first compound 1 µM
[11] = second compound 0.01 µM, first compound 3.16 µM
[12] = second compound 0.01 µM, first compound 10 µM
[13] = second compound 0.0316 µM, first compound 0.0316 µM
[14] = second compound 0.0316 µM, first compound 0.1 µM
[15] = second compound 0.0316 µM, first compound 0.316 µM
[16] = second compound 0.0316 µM, first compound 1 µM
[17] = second compound 0.0316 µM, first compound 3.16 µM
[18] = second compound 0.0316 µM, first compound 10 µM
[19] = second compound 0.1 µM, first compound 0.0316 µM
[20] = second compound 0.1 µM, first compound 0.1 µM
[21] = second compound 0.1 µM, first compound 0.316 µM
[22] = second compound 0.1 µM, first compound 1 µM
[23] = second compound 0.1 µM, first compound 3.16 µM
[24] = second compound 0.1 µM, first compound 10 µM
[25] = second compound 0.316 µM, first compound 0.0316 µM
[26] = second compound 0.316 µM, first compound 0.1 µM
[27] = second compound 0.316 µM, first compound 0.316 µM
[28] = second compound 0.316 µM, first compound 1 µM
[29] = second compound 0.316 µM, first compound 3.16 µM
[30] = second compound 0.316 µM, first compound 10 µM
[31] = second compound 1 µM, first compound 0.0316 µM
[32] = second compound 1 µM, first compound 0.1 µM
[33] = second compound 1 µM, first compound 0.316 µM
[34] = second compound 1 µM, first compound 1 µM
[35] = second compound 1 µM, first compound 3.16 µM
[36] = second compound 1 µM, first compound 10 µM

C#Cc1c(F)ccc2cc(O)cc(-c3ncc4c(N5CC6CCC(C5)N6)nc(OCC56CCCN5CC(F)C6)nc4c3F)c12 (stereo not given) + CC(Nc1ccc2c(c1)OCCn1cc(N3C(=O)OCC3C(F)F)nc1-2)C(N)=O
inactive: viability, T/C [1] 103% | viability, T/C [2] 99% | viability, T/C [3] 96.1% | viability, T/C [4] 86.7% | viability, T/C [5] 69.8% | viability, T/C [6] 48.6% | viability, T/C [7] 94% | viability, T/C [8] 94.8% | viability, T/C [9] 87.6% | viability, T/C [10] 78.3% | viability, T/C [11] 63.9% | viability, T/C [12] 47.4% | viability, T/C [13] 74.2% | viability, T/C [14] 83.1% | viability, T/C [15] 74.4% | viability, T/C [16] 61.4% | viability, T/C [17] 56.7% | viability, T/C [18] 41.8% | viability, T/C [19] 70.3% | viability, T/C [20] 65.3% | viability, T/C [21] 64.5% | viability, T/C [22] 56.8% | viability, T/C [23] 53.7% | viability, T/C [24] 35.5% | viability, T/C [25] 67.6% | viability, T/C [26] 67.1% | viability, T/C [27] 58.8% | viability, T/C [28] 54.2% | viability, T/C [29] 44% | viability, T/C [30] 33.4% | viability, T/C [31] 60.7% | viability, T/C [32] 54.4% | viability, T/C [33] 55.4% | viability, T/C [34] 51.4% | viability, T/C [35] 41.5% | viability, T/C [36] 28%
5.33: pIC50 (second compound 0.0316 µM)
5.97: pIC50 (second compound 1 µM)
5.81: pIC50 (second compound 0.316 µM)
5.47: pIC50 (second compound 0.1 µM)
5.03: pIC50 (second compound 0.00316 µM)
5.08: pIC50 (second compound 0.01 µM)

C=CC(=O)N1CCN(c2nc(=O)n(-c3c(C)ccnc3C(C)C)c3nc(-c4c(O)cccc4F)c(F)cc23)C(C)C1 (stereo not given) + CC(Nc1ccc2c(c1)OCCn1cc(N3C(=O)OCC3C(F)F)nc1-2)C(N)=O
< 5.00: pIC50 (second compound 0.00316 µM) | pIC50 (second compound 0.01 µM) | pIC50 (second compound 0.0316 µM) | pIC50 (second compound 0.1 µM) | pIC50 (second compound 0.316 µM)
inactive: viability, T/C [1] 97.8% | viability, T/C [2] 113% | viability, T/C [3] 117% | viability, T/C [4] 124% | viability, T/C [5] 126% | viability, T/C [6] 111% | viability, T/C [7] 97.5% | viability, T/C [8] 99.1% | viability, T/C [9] 99.3% | viability, T/C [10] 119% | viability, T/C [11] 122% | viability, T/C [12] 106% | viability, T/C [13] 80.3% | viability, T/C [14] 86.1% | viability, T/C [15] 88.3% | viability, T/C [16] 97.8% | viability, T/C [17] 99.2% | viability, T/C [18] 82.1% | viability, T/C [19] 69.8% | viability, T/C [20] 71.2% | viability, T/C [21] 81.6% | viability, T/C [22] 73% | viability, T/C [23] 68.5% | viability, T/C [24] 59.3% | viability, T/C [25] 68.7% | viability, T/C [26] 64.6% | viability, T/C [27] 67.8% | viability, T/C [28] 68.8% | viability, T/C [29] 62.1% | viability, T/C [30] 48% | viability, T/C [31] 59.2% | viability, T/C [32] 57.7% | viability, T/C [33] 62.1% | viability, T/C [34] 60.6% | viability, T/C [35] 58.1% | viability, T/C [36] 40.3%
5.08: pIC50 (second compound 1 µM)

CC(Cn1ccc(-c2ccc(C#N)c(Cl)c2)n1)NC(=O)c1cc(C(C)O)[nH]n1 (stereo not given) + CC(Nc1ccc2c(c1)OCCn1cc(N3C(=O)OCC3C(F)F)nc1-2)C(N)=O
inactive: viability, T/C [1] 102% | viability, T/C [2] 95.6% | viability, T/C [3] 104% | viability, T/C [4] 95% | viability, T/C [5] 96.5% | viability, T/C [6] 88.1% | viability, T/C [7] 96% | viability, T/C [8] 97.5% | viability, T/C [9] 91.8% | viability, T/C [10] 94.6% | viability, T/C [11] 84.4% | viability, T/C [12] 77% | viability, T/C [13] 83.2% | viability, T/C [14] 81.7% | viability, T/C [15] 82.4% | viability, T/C [16] 77% | viability, T/C [17] 74.3% | viability, T/C [18] 64% | viability, T/C [19] 80.1% | viability, T/C [20] 69.6% | viability, T/C [21] 72% | viability, T/C [22] 69.9% | viability, T/C [23] 64.8% | viability, T/C [24] 50.3% | viability, T/C [25] 63.5% | viability, T/C [26] 63.3% | viability, T/C [27] 65.1% | viability, T/C [28] 61.2% | viability, T/C [29] 60.8% | viability, T/C [30] 53.6% | viability, T/C [31] 66% | viability, T/C [32] 56.3% | viability, T/C [33] 64.5% | viability, T/C [34] 60.2% | viability, T/C [35] 56.1% | viability, T/C [36] 48.8%
< 5.00: pIC50 (second compound 0.00316 µM) | pIC50 (second compound 0.01 µM) | pIC50 (second compound 0.0316 µM) | pIC50 (second compound 0.1 µM) | pIC50 (second compound 0.316 µM) | pIC50 (second compound 1 µM)

CC1(C)CCC(Nc2ncc(C(F)(F)F)c(-c3c[nH]c4c(P(C)(C)=O)c(C#N)ccc34)n2)CN1 (stereo not given) + CC(Nc1ccc2c(c1)OCCn1cc(N3C(=O)OCC3C(F)F)nc1-2)C(N)=O
active: viability, T/C [6] 4.16% | viability, T/C [12] 3.26% | viability, T/C [18] 3.28% | viability, T/C [24] 2.99% | viability, T/C [30] 2.9%
> 7.50: pIC50 (second compound 0.00316 µM) | pIC50 (second compound 0.01 µM) | pIC50 (second compound 0.0316 µM) | pIC50 (second compound 0.1 µM) | pIC50 (second compound 0.316 µM) | pIC50 (second compound 1 µM)
inactive: viability, T/C [1] 47.2% | viability, T/C [2] 47.7% | viability, T/C [3] 42.2% | viability, T/C [4] 48.2% | viability, T/C [5] 47.4% | viability, T/C [7] 48.4% | viability, T/C [8] 44.9% | viability, T/C [9] 44.2% | viability, T/C [10] 46.7% | viability, T/C [11] 47.5% | viability, T/C [13] 45.1% | viability, T/C [14] 42.1% | viability, T/C [15] 43.6% | viability, T/C [16] 45.2% | viability, T/C [17] 42.4% | viability, T/C [19] 41.9% | viability, T/C [20] 39.6% | viability, T/C [21] 41.1% | viability, T/C [22] 37.8% | viability, T/C [23] 36.2% | viability, T/C [25] 39.8% | viability, T/C [26] 38.9% | viability, T/C [27] 36.1% | viability, T/C [28] 37.4% | viability, T/C [29] 34.8% | viability, T/C [31] 37.8% | viability, T/C [32] 36% | viability, T/C [33] 33.4% | viability, T/C [34] 34.6% | viability, T/C [35] 34.9% | viability, T/C [36] 2.74%

Cn1nccc1Nc1nccc(-c2ccn(C(CO)c3ccc(Cl)c(F)c3)c(=O)c2)n1 (stereo not given) + CC(Nc1ccc2c(c1)OCCn1cc(N3C(=O)OCC3C(F)F)nc1-2)C(N)=O
7.17: pIC50 (second compound 0.316 µM)
> 7.50: pIC50 (second compound 1 µM)
7.05: pIC50 (second compound 0.1 µM)
inactive: viability, T/C [1] 64.6% | viability, T/C [2] 68.1% | viability, T/C [3] 56.8% | viability, T/C [4] 50.9% | viability, T/C [5] 39.6% | viability, T/C [6] 26.9% | viability, T/C [7] 71.6% | viability, T/C [8] 64.4% | viability, T/C [9] 52% | viability, T/C [10] 46.9% | viability, T/C [11] 39.6% | viability, T/C [12] 23% | viability, T/C [13] 69.2% | viability, T/C [14] 56.4% | viability, T/C [15] 47.3% | viability, T/C [16] 42.2% | viability, T/C [17] 29.4% | viability, T/C [18] 20.4% | viability, T/C [19] 56.4% | viability, T/C [20] 46.6% | viability, T/C [21] 43% | viability, T/C [22] 40.2% | viability, T/C [23] 25.5% | viability, T/C [24] 20.8% | viability, T/C [25] 53.4% | viability, T/C [26] 48.5% | viability, T/C [27] 42.1% | viability, T/C [28] 33.4% | viability, T/C [29] 26.3% | viability, T/C [30] 19% | viability, T/C [31] 51.2% | viability, T/C [32] 42.3% | viability, T/C [33] 38.5% | viability, T/C [34] 36.1% | viability, T/C [35] 26.6% | viability, T/C [36] 16.2%
6.21: pIC50 (second compound 0.01 µM)
6.57: pIC50 (second compound 0.0316 µM)
5.97: pIC50 (second compound 0.00316 µM)
